Assay results: article PMC10342707, “Identification of Regulatory Molecular “Hot Spots” for LH/PLOD Collagen Glycosyltransferase Activity” (International Journal of Molecular Sciences, 2023)

Experiments:
LH3/PLOD3 [1] = molecular target: T1, LH3/PLOD3 (Homo sapiens, UniProt O60568); assay: differential scanning fluorimetry; format: binding; conditions: 50 mM MnCl2, 5 mM ligand, 25 mM HEPES, 500 mM NaCl, pH 8
T1 construct: 6xHis-tag and TEV site; secreted from HEK293-F cells
T1 sequence (O60568 25-738): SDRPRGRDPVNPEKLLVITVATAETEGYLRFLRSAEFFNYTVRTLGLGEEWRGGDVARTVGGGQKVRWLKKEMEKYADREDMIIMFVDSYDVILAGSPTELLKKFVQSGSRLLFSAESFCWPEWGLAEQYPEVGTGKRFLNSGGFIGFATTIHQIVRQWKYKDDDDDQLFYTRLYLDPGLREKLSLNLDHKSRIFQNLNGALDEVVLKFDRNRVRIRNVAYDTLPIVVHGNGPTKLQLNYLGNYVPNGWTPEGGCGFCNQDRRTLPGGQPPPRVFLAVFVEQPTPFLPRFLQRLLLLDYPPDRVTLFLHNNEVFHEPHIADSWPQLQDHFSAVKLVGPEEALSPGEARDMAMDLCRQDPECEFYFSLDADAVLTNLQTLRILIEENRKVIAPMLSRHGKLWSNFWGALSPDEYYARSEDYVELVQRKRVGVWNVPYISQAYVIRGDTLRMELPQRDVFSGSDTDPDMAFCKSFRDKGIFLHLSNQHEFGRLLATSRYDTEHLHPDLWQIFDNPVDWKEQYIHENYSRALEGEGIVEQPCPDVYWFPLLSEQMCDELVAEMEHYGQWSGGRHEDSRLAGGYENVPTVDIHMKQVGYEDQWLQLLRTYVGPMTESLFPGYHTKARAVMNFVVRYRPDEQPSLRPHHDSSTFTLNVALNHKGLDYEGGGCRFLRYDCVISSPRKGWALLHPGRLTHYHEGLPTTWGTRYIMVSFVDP

LH3/PLOD3 [2] = molecular target: T1, LH3/PLOD3; assay: luminescence-based Glc-T competition assay; format: biochemical; conditions: read-out: UDP-Glc (IC50)
Text: luminescence-based Glc-T competition assay on LH3/PLOD3

**Q.** What does the source list for `O=C(O)[C@H]1O[C@H](OP(=O)(O)OP(=O)(O)OC[C@H]2O[C@@H](n3ccc(=O)[nH]c3=O)[C@H](O)[C@@H]2O)[C@H](O)[C@@H](O)[C@@H]1O` [UDP-GlcA]?
**A.** thermal shift (LH3/PLOD3 [1]): 1–1.5 °C; IC50 (LH3/PLOD3 [2]): > 10 mM

**Q.** How did the IC50 (LH3/PLOD3 [2]) turn out when `O=c1ccn([C@@H]2O[C@H](COP(=O)(O)OP(=O)(O)O[C@H]3OC[C@@H](O)[C@H](O)[C@H]3O)[C@@H](O)[C@H]2O)c(=O)[nH]1` [UDP-Xyl] was run?
**A.** Its IC50 is 3.17 ± 0.211 mM.

**Q.** With `O=c1ccn([C@@H]2O[C@H](COP(=O)(O)OP(=O)(O)O)[C@@H](O)[C@H]2O)c(=O)[nH]1` [UDP] as the compound, how does the thermal shift (LH3/PLOD3 [1]) read?
**A.** The thermal shift was 3–3.5 °C.
